Patent US20100298141A1, “SUBSTITUTED PYRIDINE N-OXIDE HERBICIDES” (E. I. DU PONT DE NEMOURS AND COMPANY, priority 2007, published 2010)

Tests used:
[1] = system: rice; test: Test C flooded paddy test; assay type: in vivo, Oryza sativa; conditions: Flood, 62 g ai/ha; scale 0 to 100 (0 no effect, 100 complete control)
How it was run: (§1)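 Compound was added to standing water 3 cm above soil, flood maintained, and plants held in a greenhouse before visual scoring against controls at 13 to 15 days.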

[2] = system: pigweed; test: Test C pre-/postemergence test; assay type: in vivo, Amaranthus retroflexus
From the text: (§2) Seeds of plant species selected from blackgrass (Alopecurus myosuroides), downy brome (Bromus tectorum), green foxtail (Setaria viridis), Italian ryegrass (Lolium multiflorum), wheat (Triticum aestivum), wild oat (Avena fatua), catchweed bedstraw (Galium aparine), Russian thistle (Salsola kali), […] (Cynodon dactylon), Surinam grass (Brachiaria decumbens), cocklebur (Xanthium strumarium), corn (Zea mays), crabgrass (Digitaria sanguinalis), woolly cupgrass (Eriochloa villosa), giant foxtail (Setaria faberii), Goosegrass (Eleusin indica), johnsongrass (Sorghum halepense), kochia (Kochia scoparia), lambsquarters (Chenopodium album), morningglory (Ipomoea coccinea), eastern black nightshade (Solanum ptycanthum), yellow nutsedge (Cyperus esculentus), pigweed (Amaranthus retroflexus), common ragweed (Ambrosia elation), soybean (Glycine max), common (oilseed) sunflower (Helianthus annuus), and velvetleaf (Abutilon theophrasti) were planted and treated preemergence with test chemicals formulated in a non-phytotoxic solvent mixture which included a surfactant. At the same time, plants selected from these crop and weed species and also winter barley (Hordeum vulgare), canarygrass (Phalaris minor), and chickweed (Stellaria media) were treated with postemergence applications of some of the test chemicals formulated in the same manner. Plants ranged in height from 2 to 18 cm (1- to 4-leaf stage) for postemergence treatments. […] At time of treatment, test pots were flooded to 3 cm above the soil surface, treated by application of test compounds directly to the paddy water, and then maintained at that water depth for the duration of the test. […] A dash (-) response means no test result.

[3] = system: redroot pigweed; test: Test A pre-/postemergence greenhouse test; assay type: in vivo, Amaranthus retroflexus; conditions: for Plant response rating, Pigweed: 0 to 100 scale where 0 is no effect and 100 is complete control; for Pigweed plant response rating: 0 to 100 scale
How it was run: (§3)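 Pots of loam–sand soil sown with the test species are sprayed preemergence on the soil surface; emerged seedlings (1–2 leaves, 2–10 cm) are sprayed postemergence at the same time. The vehicle is a non-phytotoxic solvent mixture with surfactant. Injury is scored visually after ~10 d in greenhouse.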

[4] = system: bermudagrass; test: Test C pre-/postemergence test; assay type: in vivo, Cynodon dactylon
From the text: as §2

[5] = system: crabgrass; test: Test C pre-/postemergence test; assay type: in vivo, Digitaria sanguinalis
From the text: as §2

[6] = system: wild oat; test: Test C pre-/postemergence test; assay type: in vivo, Avena fatua
From the text: as §2

[7] = system: velvetleaf; test: Test C pre-/postemergence test; assay type: in vivo, Abutilon theophrasti
From the text: as §2

[8] = system: corn; test: Test A pre-/postemergence greenhouse test; assay type: in vivo, Zea mays; conditions: for Plant response rating, Corn: 0 to 100 scale where 0 is no effect and 100 is complete control; for Corn plant response rating: 0 to 100 scale
How it was run: as §3

[9] = system: wheat; test: Test C pre-/postemergence test; assay type: in vivo, Triticum aestivum
From the text: as §2

[10] = system: common (oilseed) sunflower; test: Test C pre-/postemergence test; assay type: in vivo, Helianthus annuus
From the text: as §2

[11] = system: Surinam grass; test: Test C pre-/postemergence test; assay type: in vivo, Brachiaria decumbens
From the text: as §2

[12] = system: blackgrass; test: Test C pre-/postemergence test; assay type: in vivo, Alopecurus myosuroides
From the text: as §2

[13] = system: duck salad; test: Test C flooded paddy test; assay type: in vivo, Heteranthera limosa; conditions: Flood, 62 g ai/ha; scale 0 to 100 (0 no effect, 100 complete control)
How it was run: as §1

[14] = system: kochia; test: Test C pre-/postemergence test; assay type: in vivo, Kochia scoparia
From the text: as §2

[15] = 62 g ai/ha, Preemergence, scale 0 to 100
[16] = 125 g ai/ha, preemergence, scale 0 (no effect) to 100 (complete control)
[17] = Postemergence, 125 g ai/ha, scale 0 to 100, 0 no effect, 100 complete control
[18] = Postemergence, 250 g ai/ha, scale 0 to 100, 0 no effect, 100 complete control
[19] = Preemergence, 31 g ai/ha, scale 0 to 100 (0 no effect, 100 complete control)
[20] = preemergence, 250 g ai/ha, scale 0 (no effect) to 100 (complete control)
[21] = Postemergence, 500 g ai/ha, 0 is no effect, 100 is complete control
[22] = Preemergence, 125 g ai/ha, 0 no effect, 100 complete control
[23] = Postemergence, 62 g ai/ha, scale 0 to 100, 0 no effect, 100 complete control

Cn1nc(C(F)(F)F)c(C[S+]([O-])c2ccc(F)c[n+]2[O-])c1OCC(F)(F)F (stereo not shown) [Compound 67]
Plant response rating, Rice [1]: 60 | Pigweed plant response rating [2, 15]: 55 | Pigweed plant response rating [2, 16]: 100 | Plant response rating (0 to 100), Pigweed ([2]; Postemergence, 31 g ai/ha): 0 | Plant response rating (0 to 100), Pigweed ([2]; Postemergence, 62 g ai/ha): 0 | Plant response rating, Pigweed [2, 17]: 0 | Plant response rating, Pigweed [2, 18]: 60 | Plant response rating, Pigweed [2, 19]: 50 | Pigweed plant response rating [2, 20]: 100 | Plant response rating, Pigweed ([3]; Postemergence, 125 g ai/ha): 80 | Pigweed plant response rating [3, 21]: 100 | Pigweed plant response rating [3, 22]: 100 | Plant response rating, Pigweed ([3]; Preemergence, 500 g ai/ha): 100 | Bermudagrass plant response rating ([4]; 62 g ai/ha, Preemergence, scale 0 to 100 (0 no effect, 100 complete control)): 100 | Bermudagrass plant response rating [4, 16]: 100 | Plant response rating (0 to 100), Bermudagrass ([4]; Postemergence, 31 g ai/ha): 0 | Plant response rating, Bermudagrass [4, 23]: 0 | Plant response rating, Bermudagrass [4, 17]: 0 | Plant response rating, Bermudagrass [4, 18]: 70 | Plant response rating, Bermudagrass [4, 19]: 90 | Bermudagrass plant response rating [4, 20]: 100 | Crabgrass, Large plant response rating [5, 15]: 100 | Crabgrass, Large plant response rating [5, 16]: 100 | Plant response rating (0 to 100), Crabgrass, Large ([5]; Postemergence, 31 g ai/ha): 0 | Plant response rating, Crabgrass, Large [5, 23]: 0 | Plant response rating, Crabgrass, Large [5, 17]: 10 | Plant response rating, Crabgrass, Large [5, 18]: 60 | Plant response rating, Crabgrass, Large [5, 19]: 60 | Crabgrass, Large plant response rating [5, 20]: 100 | Oat, Wild plant response rating [6, 15]: 80 | Oat, Wild plant response rating [6, 16]: 98 | Plant response rating (0 to 100), Oat, Wild ([6]; Postemergence, 31 g ai/ha): 10 | Plant response rating, Oat, Wild [6, 23]: 20 | Plant response rating, Oat, Wild [6, 18]: 60 | Plant response rating, Oat, Wild [6, 19]: 80 | Oat, Wild plant response rating [6, 20]: 100 | Velvetleaf plant response rating [7, 15]: 85 | Velvetleaf plant response rating [7, 16]: 100 | Plant response rating (0 to 100), Velvetleaf ([7]; Postemergence, 31 g ai/ha): 0 | Plant response rating (0 to 100), Velvetleaf ([7]; Postemergence, 62 g ai/ha): 0 | Plant response rating, Velvetleaf [7, 17]: 30 | Plant response rating, Velvetleaf [7, 18]: 35 | Plant response rating, Velvetleaf [7, 19]: 75 | Velvetleaf plant response rating [7, 20]: 100 | Plant response rating, Corn ([8]; Postemergence, 125 g ai/ha): 60 | Corn plant response rating [8, 21]: 90 | Corn plant response rating [8, 22]: 0 | Plant response rating, Corn ([8]; Preemergence, 500 g ai/ha): 80 | Wheat plant response rating [9, 15]: 98 | Wheat plant response rating [9, 16]: 100 | Plant response rating (0 to 100), Wheat ([9]; Postemergence, 31 g ai/ha): 25 | Plant response rating (0 to 100), Wheat ([9]; Postemergence, 62 g ai/ha): 30 | Plant response rating, Wheat [9, 17]: 70 | Plant response rating, Wheat [9, 18]: 85 | Plant response rating, Wheat [9, 19]: 40 | Wheat plant response rating [9, 20]: 100 | Sunflower plant response rating [10, 15]: 85 | Sunflower plant response rating [10, 16]: 100 | Plant response rating, Sunflower [10, 19]: 45 | Sunflower plant response rating [10, 20]: 100 | Surinam Grass plant response rating [11, 15]: 100 | Surinam Grass plant response rating [11, 16]: 100 | Plant response rating (0 to 100), Surinam Grass ([11]; Postemergence, 31 g ai/ha): 0 | Plant response rating (0 to 100), Surinam Grass ([11]; Postemergence, 62 g ai/ha): 0 | Plant response rating, Surinam Grass [11, 17]: 30 | Plant response rating, Surinam Grass [11, 18]: 45 | Plant response rating, Surinam Grass [11, 19]: 85 | Surinam Grass plant response rating [11, 20]: 100 | Blackgrass plant response rating [12, 15]: 100 | Blackgrass plant response rating [12, 16]: 100 | Plant response rating (0 to 100), Blackgrass ([12]; Postemergence, 31 g ai/ha): 30 | Plant response rating, Blackgrass [12, 23]: 80 | Plant response rating, Blackgrass [12, 17]: 90 | Plant response rating, Blackgrass [12, 18]: 90 | Plant response rating, Blackgrass [12, 19]: 90 | Blackgrass plant response rating [12, 20]: 100 | Plant response rating, Ducksalad [13]: 100 | Kochia plant response rating [14, 15]: 100 | Kochia plant response rating [14, 16]: 100 | Plant response rating (0 to 100), Kochia ([14]; Postemergence, 31 g ai/ha): 0 | Plant response rating, Kochia [14, 23]: 0 | Plant response rating, Kochia [14, 17]: 60 | Plant response rating, Kochia [14, 18]: 60 | Plant response rating, Kochia [14, 19]: 80 | Kochia plant response rating [14, 20]: 100
